Results on 1 compound are retold here after patent US20230382895A1, “CRYSTALLINE FORM III OF MELANOCORTIN RECEPTOR AGONIST COMPOUND AND PREPARATION METHOD THEREFOR” (LG CHEM, LTD., priority 2020, published 2023).

“Also recorded” adds a separate entry of the source. Structures can show the parent of a compound that is named as a salt.

The nature of this series: Stability assessment by HPLC after storage under accelerated (40° C., 75% RH, open) or harsh (80° C., sealed) condition. The note with it: for Stability (HPLC), Open AOC: open state, accelerated condition (40° C., 75% RH); for Stability (HPLC), Closed STR: sealed state, harsh condition, oven at 80° C. Type of series: physicochemical. As for the experimental part:
About 10-30 mg of the sample was stored for 4 weeks in an open state under the accelerated condition (40° C., 75% RH) or in a sealed state under the harsh condition in an oven at 80° C. [table]

Consider `CC(C)C(=O)N([C@H]1C[C@@H](C(=O)N2CCOCC2)N(C(=O)[C@@H]2CN(C(C)(C)C)C[C@H]2c2ccc(Cl)cc2)C1)[C@H]1CC[C@@H](C)CC1` [Example 1, Is7-((3S,5S)-1-((3S,4R)-1-(tert-butyl)-4-(4-chlorophenyl)pyrrolidine-3-carbonyl)-5-(morpholine-4-carbonyl)pyrrolidin-3-yl)-N-((is, 4R)-4-methylcyclohexyl) isobutyramide hydrochloride], for which the “Chemical stability for 4 weeks” value (4 weeks, accelerated condition (40° C., 75% RH) and harsh condition (80° C.), listed as crystalline form III, hydrochloride) is “showed chemical stability; also recorded: exhibited chemical stability”. Where the note is “Initial, before storage, in % (unit assumed)”, the “Stability (HPLC), Initial” value worked out at 99.68. Also, under “Week 2, in % (unit assumed)”, the “Stability (HPLC), Open AOC” value came to 89.27 and the “Stability (HPLC), Closed STR” value stood at 99.11. For the setting “Week 4, in % (unit assumed)”, the “Stability (HPLC), Open AOC” value was determined as 99.26 and the “Stability (HPLC), Closed STR” value is reported as 98.76.
